Experimental data from publication PMC11345829, “Discovery of Potent Isoquinolinequinone N-Oxides to Overcome Cancer Multidrug Resistance” (Journal of Medicinal Chemistry, 2024).

Assays:
Assay type in all cases: cell-based, human
NCI-H460 spheroids = experiment: Cell Titer-Glo 3D spheroid viability assay; details: 48 h; 25 at 0.35 and 0.7 μM; doxorubicin 50 nM
Excerpt: Figure 12 Effect of compound 25 on the viability of spheroids established from two counterpart pairs of sensitive and MDR cell lines, from NSCLC (NCI-H460 and NCI-H460/R) and colorectal cancer (DLD1 and DLD1-TxR), using MicroTissue 3D Petri dishes. […] (B) Effect of compound 25 on the viability of NCI-H460 spheroids analyzed by Cell Titer-Glo 3D viability assay. (C) Effect of compound 25 on the viability of NCI-H460/R spheroids analyzed with the Cell Titer-Glo 3D viability assay. Results are presented as the % of luciferase luminescence relative to the “blank” cells (medium). […] (E) Effect of compound 25 on the viability of DLD1 spheroids analyzed by Cell Titer-Glo 3D viability assay. (F) Effect of compound 25 on the viability of DLD1-TxR spheroids analyzed with the Cell Titer-Glo 3D viability assay. Data are expressed as mean ± SEM from 3 independent experiments. * p ≤ 0.05 and ** p ≤ 0.01, when comparing DMSO vs compound treatment.
Spheroid formation was conducted in 12-series agarose 3D Petri Dish micromolds (MicroTissues Technology, MicroTissues Inc., Sigma-Aldrich). The agarose micromolds were prepared using 1% agarose in a 0.9% NaCl solution and then placed in 12-well plates and equilibrated with RPMI supplemented with 10% FBS for at least 2 h before cell seeding. Cell suspensions corresponding to 500 cells per spheroid of the NSCLC cell lines (NCI-H460 and NCI-H460/R), and 1000 cells per spheroid of the colorectal cancer cell lines (DLD1 and DLD1-TxR) were seeded in the corresponding micromolds. The choice of cell seeding concentration was based on a previous optimization assay (data not shown), ensuring that at the end of the assay the spheroids would have a size of around 400 μm. A 20 min incubation period was used for cells to settle into the micromolds and additional medium was finally added to the wells. Spheroid formation was monitored with the Leica DMi1 microscope. […] At the end of the treatment, images from at least 8 different spheroids per condition were captured on the Leica Dmi1 microscope, and posteriorly analyzed with the automated open-source software AnaSP.[82] Spheroid parameters, such as equivalent diameter, circularity, and compactness, were calculated.
Spheroid viability was determined through the luminescence-based Cell Titer-Glo 3D cell viability assay (Promega). Spheroids grown on MicroTissues 3D Petri Dish micromolds were exposed to the treatments, as described in the previous section. Then, the spheroids were transferred into 96-well plates in 50 μL of RPMI medium. […] The plate was then incubated in the dark for 5 min with agitation and allowed to rest for 25 min before luminescence measurement. Luminescence was quantified using the microplate reader Synergy MX coupled with the GEN5 software. […]

NCI-H460 cells [1] = experiment: ROS accumulation, CM-H2DCFDA flow cytometry; details: 6 h; 0.7, 1 and 5 μM; concentration dependent
Excerpt: To uncover the mechanisms of action of 25, we analyzed the cellular accumulation of ROS by flow cytometry, using a fluorescent marker of ROS, 5-(and-6)-chloromethyl-2′,7′-dichlorodihydrofluorescein diacetate acetyl ester (CM-H2DCFDA). […] Importantly, this effect was concentration dependent.
Figure 6 Effect of the compound 25 on ROS accumulation in NCI-H460 cells. […] Results are presented as mean fluorescence values, normalized to the blank. Data are expressed as mean ± SEM from at least 3 independent experiments.
To study the effect of compound 25 on ROS levels, 5-(and-6)-chloromethyl-2′,7′-dichlorodihydrofluorescein diacetate, acetyl ester (CM-H2DCFDA; Invitrogen) analysis by flow cytometry was performed in the drug-sensitive cells. NCI-H460 cells (1.5 × 10^5/mL) were plated in 6-well plates for 24 h. […] Harvested cells were subsequently washed twice in phosphate-buffered saline (PBS) and the CM-H2DCFDA fluorescence was analyzed in a BD AccuriTM flow cytometer (BD Biosciences, San Jose, California, USA). Mean fluorescence intensity was calculated after correction for autofluorescence.

NCI-H460 cells [2] = experiment: Cell cycle profile, PI staining flow cytometry; details: 48 h; for cell cycle profile: 25 at 0.35 and 0.7 μM, doxorubicin 50 nM
Experimental: The effect of 25 on the cell cycle profile of NCI-H460 cells was assessed.
Figure 8 Effect of compound 25 on the cell cycle profile of NCI-H460 cells, analyzed by flow cytometry (PI staining). […] (A) Frequency (%) of cell cycle phases for each condition. (B) Representative cell cycle histograms. Results are the mean ± SEM from at least 3 independent experiments. * p ≤ 0.05, when comparing DMSO vs compound treatment.
Collected cells were then fixed in ice-cold 70% ethanol (Fisher Scientific) overnight. Cells were then centrifuged again and resuspended in 5 μg/mL of PI (Merck Life Science) and 0.1 mg/mL RNase A (Invitrogen) in PBS, and kept in the dark for at least 30 min. Cellular DNA content was analyzed using the BD Accuri C6 Flow cytometer. At least 10 000 events per sample were acquired. FlowJo 7.6.5 software (Tree Star, Inc., Ashland, Oregon, USA) was used to determine the % of cells in the different phases of the cell cycle.

MCF12A = experiment: SRB cytotoxicity assay, nontumorigenic breast cells; details: 48 h at GI50 concentration obtained on NCI-H460 cells
Experimental: Selectivity over nontumorigenic cells is a key requirement in cancer therapy so the cytotoxicity of 25 against nontumorigenic lung fibroblast (MRC-5) and breast cell lines (MCF12A) was evaluated with the SRB assay.
Compound 25 was also tested on the nontumorigenic MCF-12A human breast epithelial cell line. […] Following this treatment, the SRB assay was performed as described above.
S3.5 Effect of 25 on the non-tumorigenic MCF12A cell line (Figure S66)
Figure S66 Cytotoxic effect of compound 25 on the non-tumorigenic MCF12A cell line, analysed by the
obtained in the NCI-H460 and NCI-H460/R pair of counterpart cell lines. Results are presented as the
% of cell growth relative to the control cells (treated with the compound vehicle, DMSO at the % used
Data are expressed as mean ± SEM from 3 independent experiments.
(1 picture or pasted object on this page, not shown here)

SMILES	viability of NCI-H460 spheroids (NCI-H460 spheroids)	ROS accumulation (fluorescence intensity) (NCI-H460 cells [1])	cells in sub-G1 phase (NCI-H460 cells [2]; 0.35 and 0.7 μM)	cell cycle profile (NCI-H460 cells [2])	effect on MCF12A growth (MCF12A)
COC(=O)c1c2c(c[n+]([O-])c1C)C(=O)C=C(NCc1ccccc1)C2=O [Compound 25]	significant decrease in the viability of the spheroids	statistically significant increase on fluorescence intensity	slight increase in the percentage of cells in the sub-G1 phase, although not statistically significant	increase in the G1 phase and decrease in the S phase	did not cause significant alterations in the growth of these nontumorigenic cells
COc1cccc2c1C(=O)c1c(O)c3c(c(O)c1C2=O)C[C@@](O)(C(=O)CO)C[C@@H]3O[C@H]1C[C@H](N)[C@H](O)[C@H](C)O1 [doxorubicin, reference compound]	did not significantly affect the viability of the spheroids	–	–	major alterations in the cell cycle profile	–
